Like-named read-outs stand apart in the source and are kept apart here.

For assay [1], the system named is mitochondrial membrane potential. The assay is classed as cell-based, mouse. Particulars: for ΔΨm (composite Z-score): normalized score vs mock-treated (DMSO) wells.
For a further assay, the system named is reactive oxygen species. In kind it is cell-based, mouse. Particulars: for ROS (composite Z-score): normalized score vs mock-treated (DMSO) wells.
A further assay concerns nuOXPHOS transcripts. In kind it is cell-based, mouse. The following applies: for nucOX (composite Z-score): normalized score vs mock-treated (DMSO) wells.
The subject of the next assay is cytochrome c. In kind it is cell-based, mouse. The following applies: for cyt c (composite Z-score): normalized score vs mock-treated (DMSO) wells.
Assay [2] relates to cellular dehydrogenase activity. The following applies: for MTT (composite Z-score): normalized score vs mock-treated (DMSO) wells.
A further assay has as its system OXPHOS gene expression. In kind it is cell-based, mouse. The following applies: for GE-HTS (composite Z-score): normalized score vs mock-treated (DMSO) wells.
A further assay relates to mtOXPHOS transcripts. In kind it is cell-based, mouse. The following applies: for mitoOX (composite Z-score): normalized score vs mock-treated (DMSO) wells.
A further assay concerns C2C12 myotubes. The following applies: for Viability (composite Z-score): normalized score vs mock-treated (DMSO) wells.
Where [3] appears, read: composite Z-score vs DMSO, Conc 20 μM.
Setting [4] is: normalized composite Z-score vs mock-treated (DMSO) wells, Conc 20 μM.
Setting [5] is: composite Z-score vs mock-treated (DMSO) wells, Conc 20 μM.
The mark [6] stands for this setting: composite Z-score vs DMSO wells, Conc 20 μM.
[7] abbreviates: composite Z-score vs mock-treated (DMSO) wells, concentration of each compound in μM.
[8] abbreviates: Table 7, C2C12 myotubes, 48 h, composite Z-score.

cytochrome c, sequence (P62897 whole entry): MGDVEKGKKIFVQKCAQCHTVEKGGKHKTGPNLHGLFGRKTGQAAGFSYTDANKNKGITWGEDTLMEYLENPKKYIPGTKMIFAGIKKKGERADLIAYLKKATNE

For the compound `CC(N/C(=N\C#N)Nc1ccncc1)C(C)(C)C` (centres unmarked) [pinacidil], the ΔΨm is on record as −0.614 in assay [1] and −0.949 in assay [1] (setting [3]). In addition, the ROS turned out to be 0.383 in the assay with reactive oxygen species and 0.655 with reactive oxygen species (setting [3]). The nucOX was 0.038 in the assay on nuOXPHOS transcripts and −0.301 with nuOXPHOS transcripts (setting [3]). Further, the cyt c in the assay on cytochrome c is 0.027; in the assay on cytochrome c (setting [3]), 1.030. Further, the MTT in assay [2] is −0.889; in assay [2] (setting [3]), −0.142. Further, the GE-HTS in the assay with OXPHOS gene expression is −0.146; in the assay with OXPHOS gene expression (setting [3]), −0.515. Further, the figures for the mitoOX in the assay on mtOXPHOS transcripts and in the assay with mtOXPHOS transcripts (setting [3]) were −0.498 and −0.814, respectively. Besides, the Viability in the assay with C2C12 myotubes is reported as −0.477; in the assay on C2C12 myotubes (setting [3]), −0.062.

`C=C1CCC(C2CC(=O)OC2=O)C(=O)CCC2C1CC2(C)C` (centres unmarked): the ΔΨm in assay [1] (setting [4]) is reported as −0.249. In the assay on reactive oxygen species (setting [4]), this compound had an ROS of 0.012. Besides, the nucOX in the assay on nuOXPHOS transcripts (setting [4]) was −1.009. Also, the cyt c with cytochrome c (setting [4]) was found to be 0.345. Moreover, the MTT in assay [2] (setting [4]) is −0.968. For the same compound, the GE-HTS with OXPHOS gene expression (setting [4]) was −1.109. The mitoOX with mtOXPHOS transcripts (setting [4]) is given as −1.046. Further, the Viability in the assay on C2C12 myotubes (setting [4]) is −0.749.

With `c1ccc2c(c1)CN1CCCC1=N2` [desoxypeganine], the ΔΨm in assay [1] (setting [3]) was 1.046. In the assay with reactive oxygen species (setting [3]), this compound returned an ROS of 0.647. In the assay on nuOXPHOS transcripts (setting [3]), this compound displayed a nucOX of 0.621. The compound also yielded a cyt c in the assay with cytochrome c (setting [3]) of 0.372. The MTT in assay [2] (setting [3]) came out at 1.441. The GE-HTS with OXPHOS gene expression (setting [3]) was 0.631. Further, the mitoOX with mtOXPHOS transcripts (setting [3]) turned out to be 0.556. The Viability in the assay on C2C12 myotubes (setting [3]) is listed as −0.281.

As to “3-deoxo-3beta-hydroxymexicanolide 16-enol ether”, the ΔΨm in assay [1] (setting [5]) was −0.059. The compound further gave an ROS with reactive oxygen species (setting [5]) of 1.279. The compound also yielded a nucOX in the assay with nuOXPHOS transcripts (setting [5]) of −0.247. The compound further displayed a cyt c with cytochrome c (setting [5]) of −0.040. This compound also gave an MTT in assay [2] (setting [5]) of −1.922. The compound further yielded a GE-HTS in the assay on OXPHOS gene expression (setting [5]) of −0.203. In the assay with mtOXPHOS transcripts (setting [5]), the mitoOX is given as −0.133. The Viability in the assay with C2C12 myotubes (setting [5]) was 0.290.

In assay [1] (setting [6]), `CCn1cc(C(=O)O)c(=O)c2cc3c(cc21)OCO3` [oxolinic acid] registered a ΔΨm of −0.640. The ROS in the assay on reactive oxygen species (setting [6]) is given as 0.681. In the assay with nuOXPHOS transcripts (setting [6]), the nucOX was 0.211. The cyt c in the assay on cytochrome c stood at 0.227; in the assay with cytochrome c (setting [6]), 0.083. Besides, the MTT in assay [2] (setting [6]) is on record as −1.598. In the assay on OXPHOS gene expression (setting [6]), this compound came in with a GE-HTS of 0.217. For the same compound, the mitoOX in the assay on mtOXPHOS transcripts (setting [6]) worked out at 0.171. The Viability in the assay with C2C12 myotubes (setting [6]) is recorded as −0.913.

`Oc1ccc2c(c1)OC[C@H]1c3cc4c(cc3O[C@@H]21)OCO4` [maackiain]: the “ΔΨm (composite Z-score)” value in assay [1] (Conc 20 μM) came out at 0.391. Besides, the “ROS (composite Z-score)” value in the assay on reactive oxygen species (Conc 20 μM) was 0.879. Moreover, the “nucOX (composite Z-score)” value in the assay with nuOXPHOS transcripts (Conc 20 μM) is −0.285. The “cyt c (composite Z-score)” value in the assay with cytochrome c (Conc 20 μM) was 0.969. The “MTT (composite Z-score)” value in assay [2] (Conc 20 μM) was −0.578. Besides, the “GE-HTS (composite Z-score)” value in the assay with OXPHOS gene expression (Conc 20 μM) was −0.561. For the same compound, the “mitoOX (composite Z-score)” value in the assay on mtOXPHOS transcripts (Conc 20 μM) is −1.049. Further, the “Viability (composite Z-score)” value in the assay with C2C12 myotubes (Conc 20 μM) is reported as −1.052.

For the compound `O=c1c(O)cccc2c([C@H]3Oc4cc(O)cc(O)c4C[C@H]3O)cc(O)c(O)c12` [theaflavanin], in assay [1] (Conc 20 μM), the “ΔΨm (composite Z-score)” value is −2.074. In addition, the “ROS (composite Z-score)” value with reactive oxygen species (Conc 20 μM) is listed as −0.040. Further, the “nucOX (composite Z-score)” value in the assay on nuOXPHOS transcripts (Conc 20 μM) is recorded as −0.764. Besides, in the assay on cytochrome c (Conc 20 μM), the “cyt c (composite Z-score)” value was −0.166. The “MTT (composite Z-score)” value in assay [2] (Conc 20 μM) is on record as −0.665. Also, the “GE-HTS (composite Z-score)” value in the assay on OXPHOS gene expression (Conc 20 μM) was −0.695. The “mitoOX (composite Z-score)” value in the assay on mtOXPHOS transcripts (Conc 20 μM) was −0.333. Also, the “Viability (composite Z-score)” value with C2C12 myotubes (Conc 20 μM) is reported as −1.349.

Compound `C[C@@H]1[C@H](O)[C@@H](C)/C=C/C=C/CC/C=C/C=C/C=C/C=C/C(O[C@H]2O[C@H](C)[C@@H](O)[C@H](N)[C@@H]2O)CC2O[C@](O)(CC(O)C(O)CCC(O)CC(O)CC(O)CC(=O)O[C@H]1C)CC(O)C2C(=O)O` (some centres unmarked) [nystatin] yielded a ΔΨm in assay [1] (setting [3]) of −0.356. In the assay on reactive oxygen species (setting [3]), this compound showed an ROS of −0.043. Besides, in the assay with nuOXPHOS transcripts (setting [3]), the nucOX amounted to 0.284. Further, the cyt c in the assay on cytochrome c (setting [3]) was −0.059. This compound gave an MTT in assay [2] (setting [3]) of 0.161. In the assay with OXPHOS gene expression (setting [3]), this compound yielded a GE-HTS of 0.326. Also, the mitoOX in the assay on mtOXPHOS transcripts (setting [3]) stood at 0.289. Also, the Viability with C2C12 myotubes (setting [3]) is reported as 0.794.

With `COc1cc2c(cc1OC)-c1cc3ccc(OC)c(OC)c3c[n+]1CC2` [Palmatine, reference compound], the ΔΨm in assay [1] (setting [7]) is −0.823. This compound also registered an ROS in the assay with reactive oxygen species (setting [7]) of 0.511. Besides, the “nucOXPHOS Z” value with nuOXPHOS transcripts (setting [8]) amounted to 1.64. For the same compound, the nucOX in the assay on nuOXPHOS transcripts (setting [7]) amounted to 1.636. The compound further returned a cyt c with cytochrome c (setting [7]) of −0.084. In assay [2] (setting [7]), this compound returned an MTT of −1.222. In the assay on OXPHOS gene expression (setting [7]), the GE-HTS stood at 1.822. The “mito-OXPHOS Z” value with mtOXPHOS transcripts (setting [8]) is 1.83. This compound gave a mitoOX in the assay with mtOXPHOS transcripts (setting [7]) of 1.833. Moreover, in the assay with C2C12 myotubes (setting [7]), the Viability is −1.028.

The values above are taken from US20090143279A1 (priority 2007, published 2009).
